# From patent publication US7629156B2, “Ethanol production in fermentation of mixed sugars containing xylose” (E.I. du Pont de Nemours and Company, priority 2006, dated 2009)
# Assays:
# Assay type in all cases: cell-based, Zymomonas mobilis
# [1] = test system: ZW658 strain; test: Flask fermentation of ZW658 on high concentration glucose or xylose alone with sorbitol; conditions: for OD600: after 48 hours, 33° C.; for ethanol production rate: 20 mM sorbitol vs no sorbitol
# Description: (§1) Approximately 1 ml of well mixed sample was obtained from flask or fermentor. First the sample absorbance was measured directly with a spectrophotometer (Amersham Biosciences Ultrospec 3300pro, GE Healthcare, Piscataway, N.J., USA). If the reading was lower than 0.6 unit, no dilution was needed. If the reading was higher than 0.6 unit, the sample was diluted with culture medium until the actual reading was in the range of 0.1 to 0.6 unit. The original OD was calculated from the dilution ratio and the actual reading.
# (§2) The analysis of sugars, acetate, ethanol, and other by-products was done with an Agilent 1100 series HPLC and Agilent ChemStation software for LC 3D. The column was BioRad Aminex HPX-87H(HPLC Organic Analysis Column 125-0140) with BioRad Micro-Guard Cartridge Cation-H (125-0129). The operating conditions were:
# (§3) Glycerol stock of seed frozen at −80° C. was thawed, then inoculated into sterile culture tubes with mixture of 60 g/L glucose, 20 g/L xylose, 10 g/L yeast extract (YE), 10 g/L KH2PO4, 2 g/L (NH4)2SO4, and 1 g/L MgSO4. Initial pH was adjusted to 5.5 with 4 N KOH. This revival culture was grown statically overnight at 37° C. It was transferred into shake flasks with 75 g/L glucose, 25 g/L xylose, 10 g/L yeast extract (YE), 10 g/L KH2PO4, 2 g/L (NH4)2SO4, and 1 g/L MgSO4. Initial pH was adjusted to 5.5 with 4 N KOH. Growth was monitored by measuring OD600. When the OD reached approximately 5, a certain volume of the seed was withdrawn into a sterile syringe for inoculation.
# In four sterilized 125 ml Erlenmeyer culture flasks (Cat. No. 30180-036, VWR International, USA), 10 ml of ZW658 strain seed culture at OD600 of approximately 5 was inoculated into each flask with 100 ml of aqueous solution containing 10 g/L yeast extract (YE), 2 g/L KH2PO4, 4 g/L KHCO3. Before inoculation, the first flask also contained 200 g/L glucose and 20 mM sorbitol, comparing to the second flask with 200 g/L glucose only. The third flask contained 200 g/L xylose and 20 mM sorbitol, comparing to the fourth flask with 200 g/L xylose only. After inoculation, sugar concentrations were diluted to about 180 g/L. Initial pH was adjusted to 5.5 with 4 NH3PO4 solution. Mixing speed was set at 150 rpm. Fermentation was conducted at 33° C. and pH was not controlled. Samples were taken periodically. Samples were filtered through 0.22 micron filters, and the filtrates were analyzed by HPLC as described in General Methods for compounds including glucose, xylose, ethanol, and xylitol. Samples were diluted with medium (as described in General Methods) and the OD600 was measured to monitor cell growth. […] After 48 hours, the OD600 were 9.94, 6.46, 5.37 and 5.45, respectively, for the first, second, third, and fourth flask.
# [2] = test system: ZW658 strain; test: Flask fermentation of ZW658 on glucose and xylose with various polyols; conditions: 10 mM polyol
# Description: as §1, §2, §3
# In five sterilized 125 ml Erlenmeyer culture flasks (Cat. No. 30180-036, VWR International, USA), 10 ml of ZW658 strain seed culture at OD600 of approximately 5 was inoculated into each flask with 100 ml of aqueous solution containing 100 g/L glucose, 80 g/L xylose, 10 g/L yeast extract (YE), 2 g/L KH2PO4, 1 g/L MgSO4.7H2O, and 4 g/L KHCO3, and 10 mM of one of the following polyols: erythritol, sorbitol, mannitol, maltitol, or lactitol. After inoculation, the total sugar concentration was about 160 g/L due to dilution by the seed culture. Initial pH was adjusted to 5.5 with 4 N H3PO4 solution. Mixing speed was set at 150 rpm. Fermentation was conducted at 33° C. and pH was not controlled. Samples were taken periodically. Samples were filtered through 0.22 micron filters, and the filtrates were analyzed by HPLC as described in General Methods for compounds including glucose, xylose, ethanol, xylitol, and acetic acid. Samples were diluted with medium (as described in General Methods) and the OD600 was measured to monitor cell growth. […] Cultures with sorbitol or mannitol grew faster and better. After 32 hours, the OD600 were 13.94 and 13.92, respectively, for cultures supplemented with sorbitol or mannitol; meanwhile, the OD600 were 9.48, 9.02, and 9.24, respectively, for cultures supplemented with erythritol, maltitol, or lactitol. […] The presence of sorbitol or mannitol allowed more xylose utilization, without production of xylitol.
# [3] = test system: ZW658 strain; test: Flask fermentation of ZW658 on glucose and xylose with acetate and various polyols; conditions: 10 mM polyol, 3 g/L acetate
# Description: as §1, §2, §3
# In five sterilized 125 ml Erlenmeyer culture flasks (Cat. No. 30180-036, VWR International, USA), 10 ml of ZW658 strain seed culture at OD600 of approximately 5 was inoculated into each flask with 100 ml of aqueous solution containing 100 g/L glucose, 80 g/L xylose, 3 g/L acetate, 10 g/L yeast extract (YE), 2 g/L KH2PO4, 1 g/L MgSO4.7H2O, and 4 g/L KHCO3, and 10 mM of the following polyols: erythritol, sorbitol, mannitol, maltitol, or lactitol; or 5 mM sorbitol plus 5 mM maltitol, or 5 mM sorbitol plus 5 mM lactitol. After inoculation, the total sugar concentration was about 160 g/L due to dilution by the seed culture. Initial pH was adjusted to 5.5 with 4 N H3PO4 solution. Mixing speed was set at 150 rpm. Fermentation was conducted at 33° C. and pH was not controlled. Samples were taken periodically. Samples were filtered through 0.22 micron filters, and the filtrates were analyzed by HPLC as described in General Methods for compounds including glucose, xylose, ethanol, and acetate. Samples were diluted with medium (as described in General Methods) and the OD600 was measured to monitor cell growth.
smiles,measurement,setting,value
OC[C@@H](O)[C@@H](O)[C@H](O)[C@@H](O)CO [sorbitol],OD600,"[1]; 200 g/L glucose (about 180 g/L after inoculation), 20 mM sorbitol",9.94
same,OD600,"[1]; 200 g/L xylose (about 180 g/L after inoculation), 20 mM sorbitol",5.37
same,ethanol production rate,[1]; glucose culture,more rapid
same,xylitol production,"[1]; glucose only or xylose only cultures, 20 mM sorbitol",No xylitol was produced
same,effect on growth,"[1]; high concentration glucose culture, 20 mM sorbitol",significantly stimulated growth
same,effect on growth,"[1]; high concentration xylose culture, 20 mM sorbitol",almost no effect on growth
same,ethanol production rate,[1]; xylose only culture,at the same rate with and without sorbitol
same,ethanol production,[2]; mixed sugars,ethanol production was also better
same,xylose utilization,[2]; mixed sugars,More xylose was utilized
same,OD600,"[2]; after 32 hours, total sugar about 160 g/L, 33° C.",13.94
same,ethanol production,[3],ethanol production was also better
same,xylose utilization,[3],More xylose was utilized
same,OD600,"[3]; after 32 hours, total sugar about 160 g/L",7.88
